Measurements: ChEMBL document CHEMBL1122286, “Heterocyclic oxyacetic acid diuretics: indazole, benzisothiazole, and benzisothiazole 1,1-dioxide analogues of [[7-chloro-3-(2-fluorophenyl)-1,2-benzisoxazol-6-yl]oxy]acetic acid” (1983)

Experiments:
Assay type in all cases: functional, Urine
Mus musculus [1] = assay: Compound was tested for diuretic activity after oral administration of 64 mg/kg in saline-loaded mice (vehicle control value=0.05)
Mus musculus [2] = assay: Compound was tested for diuretic activity after oral administration of 64 mg/kg in saline-loaded mice (vehicle control value=0.6)
Mus musculus [3] = assay: Compound was tested for diuretic activity per os in saline-loaded mice at 64 mg/kg. (vehicle control value=1.22)
Mus musculus [4] = assay: Compound was tested for diuretic activity after oral administration of 64 mg/kg in saline-loaded mice (vehicle control value=0.8)
Mus musculus [5] = assay: Compound was tested for diuretic activity after oral administration of 64 mg/kg in saline-loaded mice vehicle control value=0.72)
Mus musculus [6] = assay: Compound was tested for diuretic activity after oral administration of 64 mg/kg in saline-loaded mice (vehicle control value=0.42)
Mus musculus [7] = assay: Compound was tested for diuretic activity after oral administration of 64 mg/kg in saline-loaded mice (vehicle control value=0.68)
Mus musculus [8] = assay: Compound was tested for diuretic activity after oral administration of 64 mg/kg in saline-loaded mice (vehicle control value=0.27)
Mus musculus [9] = assay: Compound was tested for diuretic activity after oral administration of 64 mg/kg in saline-loaded mice (vehicle control value=0.56)
Mus musculus [10] = assay: Compound was tested for diuretic activity after oral administration of 64 mg/kg in saline-loaded mice vehicle control value=0.25)
Mus musculus [11] = assay: Compound was tested for diuretic activity after oral administration of 64 mg/kg in saline-loaded mice (vehicle control value=0.3)
Mus musculus [12] = assay: Compound was tested for diuretic activity after oral administration of 64 mg/kg in saline-loaded mice (vehicle control value=0.2)
Mus musculus [13] = assay: Compound was tested for diuretic activity after oral administration of 64 mg/kg in saline-loaded mice (vehicle control value=0.1)

O=C(O)COc1ccc2c(-c3ccccc3F)noc2c1Cl was tested, and the Diuretic activity (Mus musculus [1]) was 10 m equiv [Na+] 5hr-1kg-1.

With O=C(O)COc1ccc2c(-c3ccccc3Cl)noc2c1Cl the Diuretic activity (Mus musculus [2]) was 9.1 m equiv [Na+] 5hr-1kg-1.

With O=C(O)COc1ccc2c(-c3ccccc3)nsc2c1Cl the Diuretic activity (Mus musculus [3]) was 2.28 (m equiv [Na+]) 5hr-1 kg-1.

Work on O=C(O)COc1ccc(C2=NS(=O)(=O)c3ccccc32)c(Cl)c1Cl yielded a Diuretic activity (Mus musculus [4]) of 2.03 m equiv [Na+] 5hr-1kg-1.

In the case of O=C(O)COc1ccc(-c2nsc3ccccc23)c(Cl)c1Cl, the Diuretic activity (Mus musculus [5]) is reported as 1.18 m equiv [Na+] 5hr-1kg-1.

For O=C(O)COc1ccc2c(c1Cl)S(=O)(=O)N=C2c1ccccc1F, the Diuretic activity (Mus musculus [4]) was 0.18 m equiv [Na+] 5hr-1kg-1.

Work on Cn1nc(-c2ccc(OCC(=O)O)c(Cl)c2Cl)c2ccccc21 yielded a Diuretic activity (Mus musculus [6]) of 0.61 m equiv [Na+] 5hr-1kg-1.

Cn1nc(-c2ccccc2Cl)c2ccc(OCC(=O)O)c(Cl)c21 gave a Diuretic activity (Mus musculus [7]) of 2.29 m equiv [Na+] 5hr-1kg-1.

With O=C(O)COc1ccc2c(-c3ccccc3F)[nH]nc2c1Cl the Diuretic activity (Mus musculus [8]) was 0.45 m equiv [Na+] 5hr-1kg-1.

Work on O=C(O)COc1ccc(-c2[nH]nc3ccccc23)c(Cl)c1Cl yielded a Diuretic activity (Mus musculus [9]) of 0.65 m equiv [Na+] 5hr-1kg-1.

Work on O=C(O)COc1ccc2c(-c3ccccc3F)nsc2c1Cl yielded a Diuretic activity (Mus musculus [10]) of 4.59 m equiv [Na+] 5hr-1kg-1.

With C=C(CC)C(=O)c1ccc(OCC(=O)O)c(Cl)c1Cl [ETHACRYNIC ACID] the Diuretic activity (Mus musculus [11]) was 4.14 (m equiv [Na+]) kg-1.

In the case of CC1(c2ccccc2)Cc2cc(OCC(=O)O)c(Cl)c(Cl)c2C1=O (centres undefined) [INDACRINONE], the Diuretic activity (Mus musculus [12]) is reported as 7.6 m equiv [Na+] 5hr-1kg-1.

O=C(O)COc1ccc(C(=O)c2cccs2)c(Cl)c1Cl [TICRYNAFEN] gave a Diuretic activity (Mus musculus [13]) of 3.31 m equiv [Na+] 5hr-1kg-1.
